Laboratory results: patent US20070049592A1, “Bis-aryl urea compounds and methods of use” (priority 2005, published 2007)
pIC50: −log10 of the molar value.

How the values were obtained:
[1] = tested on: Human Umbilical Vein Endothelial cells; experiment: HUVEC proliferation assay (VEGF); format: cell-based; conditions: VEGF-stimulated HUVEC proliferation
Protocol: Human Umbilical Vein Endothelial cells are purchased from Clonetics, Inc., as cryopreserved cells harvested from a pool of donors. These cells, at passage 1, are thawed and expanded in EBM-2 complete medium, until passage 2 or 3. The cells are trypsinized, washed in DMEM+10% FBS+antibiotics, and spun at 1000 rpm for 10 min. Prior to centrifugation of the cells, a small amount is collected for a cell count. After centrifugation, the medium is discarded, and the cells are resuspended in the appropriate volume of DMEM+10% FBS+antibiotics to achieve a concentration of 3×10^5 cells/mL. Another cell count is performed to confirm the cell concentration. The cells are diluted to 3×10^4 cells/mL in DMEM+10% FBS+antibiotics, and 100 μL of cells are added to a 96-well plate. The cells are incubated at 37° C. for 22 h.
Prior to the completion of the incubation period, compound dilutions are prepared. Five-point, five-fold serial dilutions are prepared in DMSO, at concentrations 400-fold greater than the final concentrations desired. 2.5 μL of each compound dilution are diluted further in a total of 1 mL DMEM+10% FBS+antibiotics (400× dilution). Medium containing 0.25% DMSO is also prepared for the 0 μM compound sample. At the 22 h timepoint, the medium is removed from the cells, and 100 μL of each compound dilution is added. The cells are incubated at 37° C. for 2-3 h.
During the compound pre-incubation period, the growth factors are diluted to the appropriate concentrations. Solutions of DMEM+10% FBS+antibiotics, containing either VEGF or bFGF at the following concentrations: 50, 10, 2, 0.4, 0.08, and 0 ng/mL are prepared. For the compound-treated cells, solutions of VEGF at 550 ng/mL or bFGF at 220 ng/mL for 50 ng/mL or 20 ng/mL final concentrations, respectively, are prepared since 10 μL of each will be added to the cells (110 μL final volume). At the appropriate time after adding the compounds, the growth factors are added. VEGF is added to one set of plates, while bFGF is added to another set of plates. For the growth factor control curves, the media on wells B4-G6 of plates 1 and 2 are replaced with media containing VEGF or bFGF at the varying concentrations (50-0 ng/mL). The cells are incubated at 37° C. for an additional 72 h.
At the completion of the 72 h incubation period, the medium is removed, and the cells are washed twice with PBS. After the second wash with PBS, the plates are tapped gently to remove excess PBS, and the cells are placed at −70° C. for at least 30 min. The cells are thawed and analyzed using the CyQuant fluorescent dye (Molecular Probes C-7026), following the manufacturer's recommendations. The plates are read on a Victor/Wallac 1420 workstation at 485 nm/530 nm (excitation/emission). Raw data is collected and analyzed using a 4-parameter fit equation in XLFit. IC50 values are then determined.

[2] = tested on: production of TNF by monocytes activated with bacterial lipopolysaccharide (LPS); experiment: Lipopolysaccharide-activated monocyte TNF production assay; format: cell-based; conditions: Homo sapiens, as a determination of p38 activity, read-out: IC50 values in the monocyte assay (LPS induced TNF release)
Protocol: Test compounds were evaluated in vitro for the ability to inhibit the production of TNF by monocytes activated with bacterial lipopolysaccharide (LPS). Fresh residual source leukocytes (a byproduct of plateletpheresis) were obtained from a local blood bank, and peripheral blood mononuclear cells (PBMCs) were isolated by density gradient centrifugation on Ficol-Paque Plus (Pharmacia). PBMCs were suspended at 2×10^6/ml in DMEM supplemented to contain 2% FCS, 10 mM, 0.3 mg/ml […], 100 U/ml penicillin G and […] streptomycin sulfate (complete media). Cells were plated into Falcon flat bottom, 96 well culture plates (200 μl/well) and cultured overnight at 37° C. and 6% CO2. Non-adherent cells were removed by washing with 200 μl/well of fresh medium. Wells containing adherent cells (˜70% monocytes) were replenished with 100 μl of fresh medium.
Test compounds were dissolved in […]. Compound stock solutions were prepared to an initial concentration of […]. Stocks were diluted initially to 20-200 μM in complete media. Nine two-fold serial dilutions of each compound were then prepared in complete medium.
One hundred microliters of each test compound dilution were added to microtiter wells containing adherent monocytes and 100 μl complete medium. Monocytes were cultured with test compounds for 60 min at which time 25 μl of complete medium containing 30 ng/ml lipopolysaccharide from E. coli K532 were added to each well. Cells were cultured an additional 4 hrs. Culture supernatants were then removed and TNF presence in the supernatants was quantified using an ELISA.
Flat bottom, 96 well Corning High Binding ELISA plates were coated overnight (4° C.) with 150 μL/well of 3 μg/ml murine anti-human TNF-α MAb (R&D Systems #MAB210). Wells were then blocked for 1 hr at room temperature with 200 μL/well of CaCl2-free ELISA buffer supplemented to contain 20 mg/ml BSA (standard ELISA buffer: […], 150 mM NaCl, 2 mM CaCl2, 0.15 mM thimerosal, pH 7.4). Plates were washed and replenished with 100 μl of test supernatants (diluted 1:3) or standards. Standards consisted of eleven 1.5-fold serial dilutions from a stock of 1 ng/ml recombinant human TNF (R&D Systems). Plates were incubated at room temperature for 1 hr on orbital shaker (300 rpm), washed and replenished with 100 μl/well of 0.5 μg/ml goat anti-human TNF-α (R&D systems #AB-210-NA) biotinylated at a 4:1 ratio. Plates were incubated for 40 min, washed and replenished with 100 μl/well of alkaline phosphatase-conjugated streptavidin (Jackson ImmunoResearch #016-050-084) at 0.02 μg/ml. Plates were incubated 30 min, washed and replenished with 200 μl/well of 1 mg/ml of p-nitrophenyl phosphate. After 30 min, plates were read at 405 nm on a Vmax plate reader.
Standard curve data were fit to a second order polynomial and unknown TNF-α concentrations determined from their OD by solving this equation for concentration. TNF concentrations were then plotted vs. test compound concentration using a second order polynomial. This equation was then used to calculate the concentration of test compounds causing a 50% reduction in TNF production.

| SMILES | pIC50 [1] | pIC50 [2] |
| --- | --- | --- |
| CNc1cc(N(C)C(=O)Nc2cc(C(=O)Nc3cc(OC)cc(C(F)(F)F)c3)ccc2C)ncn1 [Example 18, 4-methyl-3-(((methyl(6-(methylamino)-4-pyrimidinyl)amino)carbonyl)amino)-N-(3-(methyloxy)-5-(trifluoromethyl)phenyl) benzamide] | > 5.30 | ≥ 5.30 |
| CNc1cc(N(C)C(=O)Nc2cc(C(=O)Nc3cccc(C(F)(F)F)c3C)ccc2C)ncn1 [Example 20, 4-methyl-3-(((methyl(6-(methylamino)-4-pyrimidinyl)amino)carbonyl)amino)-N-(2-methyl-3-(trifluoromethyl)phenyl)benzamide] | > 5.30 | ≥ 5.30 |
| CNc1cc(N(C)C(=O)Nc2cc(C(=O)Nc3cccc(-c4ccccc4)c3)ccc2C)ncn1 [Example 31, N-(1,1′-biphenyl-3-yl)-4-methyl-3-(((methyl(6-(methylamino)-4-pyrimidinyl)amino)carbonyl)amino)benzamide] | > 5.30 | ≥ 5.30 |
| CNc1cc(N(C)C(=O)Nc2cc(C(=O)Nc3cccc(C(F)(F)F)c3)ccc2C)ncn1 [Example 16, ′4-methyl-3-(((methyl(6-(methylamino)-4-pyrimidinyl)amino)carbonyl)amino)-N-(3-(trifluoromethyl)phenyl) benzamide] | > 5.30 | ≥ 5.30 |
| CNc1cc(N(C)C(=O)Nc2cc(C(=O)Nc3cccc(C(C)C)c3)ccc2C)ncn1 [Example 17, 4-methyl-N-(3-(1-methylethyl)phenyl)-3-(((methyl(6-(methylamino)-4-pyrimidinyl)amino)carbonyl)amino) benzamide] | > 5.30 | ≥ 5.30 |
| CNc1cc(N(C)C(=O)Nc2cc(C(=O)Nc3ccc4ccccc4c3)ccc2C)ncn1 [Example 23, 4-methyl-3-(((methyl(6-(methylamino)-4-pyrimidinyl)amino)carbonyl)amino)-N-(2-naphthalenyl) benzamide] | > 5.30 | ≥ 5.30 |
| CNc1cc(N(C)C(=O)Nc2cc(C(=O)Nc3cccc(C(F)(F)F)c3F)ccc2C)ncn1 [Example 24, N-(2-fluoro-3-(trifluoromethyl)phenyl)-4-methyl-3-((methyl(6-(methylamino)-4-pyrimidinyl)amino)carbonylamino)benzamide] | > 5.30 | ≥ 5.30 |
| CNc1cc(N(C)C(=O)Nc2cc(C(=O)Nc3ccc(C(F)(F)F)cc3)ccc2C)ncn1 [Example 32, 4-methyl-3-(((methyl(6-(methylamino)-4-pyrimidinyl)amino)carbonyl)amino)-N-(4-(trifluoromethyl)phenyl)benzamide] | > 5.30 | ≥ 5.30 |
| CNc1cc(N(C)C(=O)Nc2cc(C(=O)Nc3ccc(C(C)(C)C)cc3)ccc2C)ncn1 [Example 25] | > 5.30 | ≥ 5.30 |
| CNc1ncnc(N(C)C(=O)Nc2cc(C(=O)Nc3ccc4ccccc4c3)ccc2C)n1 [Example 30, 4-methyl-3-(((methyl(4-(methylamino)-1,3,5-triazin-2-yl)amino)carbonyl)amino)-N-(2-naphthalenyl) benzamide] | > 5.30 | ≥ 5.30 |
